{"source": "paper PMC4387272", "about": "“Pharmacokinetic, pharmacodynamic and biomarker evaluation of transforming growth factor-β receptor I kinase inhibitor, galunisertib, in phase 1 study in patients with advanced cancer” (Investigational new drugs, 2014)", "key": {"[1]": {"set-up": "method as in PMID 24868575", "conditions": "population PK model, Cohorts 1 through 5; cited from earlier work"}, "glioma": {"system": "glioma", "assay": "Radiographic response / clinical benefit (RECIST, Macdonald criteria) in first-in-human dose study", "assay_type": "in vivo", "conditions": "for Cycles (n) (best response): individual glioma patients with sequenced tumor; for CR/PR/SD ≥6 cycles, Low grade/secondary glioma / CR/PR/SD ≥6 cycles, Primary glioma: number of patients; for Clinical Benefit / No Clinical Benefit: Parts A and B", "method": "Starting with Cohort 3, only patients with relapsed and progressive glioma were eligible for this study. All patients were assessed for radiographic responses using Response Evaluation Criteria in Solid Tumors (RECIST) and, for glioma patients, using Macdonald criteria. All patients had to have an Eastern Cooperative Oncology Group performance status of ≤2. Patients were required to have adequate hematologic, hepatic, and renal function and discontinue all previous therapies for cancer at least 4 weeks prior to study enrollment. Exclusion criteria included medically uncontrolled cardiovascular illness, electrocardiogram anomalies, serious pre-existing medical conditions, and any unapproved therapy.\n• Part A was a dose escalation study using galunisertib monotherapy administered initially to patients with advanced or metastatic cancer as a daily continuous dosing. Starting with Cohort 3 and for the remainder of the study, patients received galunisertib on an intermittent dose regimen of 14 days on/14 days off for a 28-day cycle. • Part B was a safety study using galunisertib on an intermittent dose regimen at 160 mg/day (80 mg twice daily [BID]) and 300 mg/day (150 mg BID) in combination with lomustine given once every 6 weeks in patients with recurrent malignant glioma who had previously failed approved treatments. • Part C was a relative bioavailability (RBA) crossover study conducted at only one center to assess two new formulations (publication in preparation). All patients were then eligible to continue on 300 mg/day dosing. In this part of the study, patients with different tumor histologies were eligible to participate; the majority of patients had glioma. The only results from Part C presented in this publication are the results of the T cell subset examination. Other results will be published elsewhere.\n(§1) A power model was fitted to PK parameter estimates Cmax and AUC(0–24) to assess the extent of dose proportionality. Clinical benefit in this study has been defined as a patient with either a complete response (CR), partial response (PR), and stable disease (SD) ≥6 cycles. MAIP results from plasma samples taken at baseline were compared between patients completing >6 cycles and ≤6 cycles using ANOVA. The analysis included controlling the false discovery rate to 30 % using the Benjamini-Hochberg method. Boxplots showing the distributions at baseline of the potentially prognostic markers are provided. Observed TGF-β-stimulated pSMAD2 (pSMAD2^+) in PBMCs was normalized by TGF-β-stimulated tSMAD2 [(tSMAD2^+) ^0.6[9, 10]] prior to determining the minimum normalized pSMAD2^+ and calculating percentage inhibition post-baseline for each patient. Baseline and minimum post-baseline values for each patient together with maximum percentage inhibition are presented on a line and scatter plot for each patient in Cohort 3 and summary statistics by time point provided from a standard mixed effects regression model, fitting log normalized pSMAD2^+ to the fixed effects of log baseline normalized pSMAD2^+, nominal time point, dose and their interaction and patient as a random effect.\nIn order to interpret protein and gene expression as potential prognostic factors we used the concept of clinical benefit based on radiographic response and/or stable disease for ≥6 cycles (Table 3)."}, "[2]": {"system": "pSMAD2 in peripheral blood mononuclear cells (PBMCs)", "assay": "pSMAD2 ELISA in peripheral blood mononuclear cells of treated patients", "assay_type": "in vivo, Human", "conditions": "for inhibition at 160 mg: Homo sapiens, PBMC, 160 mg/day cohort (Part A)", "method": "pSMAD2 in peripheral blood mononuclear cells (PBMCs) were assessed by a specific ELISA as previously described, in which a rabbit polyclonal antibody recognizing pSMAD2 was used. Total SMAD2 was also assessed and used to normalize the expression of pSMAD2.\nas §1\nUsing an ELISA to detect changes of pSMAD2 in isolated PBMCs as a PD response marker, we observed changes after galunisertib administration. […] In 11 of the 14 patients, pSMAD2 inhibition was assessed at the observed maximum concentration for galunisertib about 2–6 h after administration on Day 14 of the first cycle. In 6 of the 11 patients, pSMAD2 levels were reduced in relationship to drug concentration, while in the remaining 5 patients, there was no relationship at the expected Cmax (Fig. 2a). […] Once the drug was stopped after 14 days of administration, pSMAD2 changes were assessed for the next 3 days in 2 patients, one in Cohort 1 and 1 in Cohort 3 (Fig. 2c and d). The pSMAD2 inhibition was still present although drug levels were low or undetectable. The mean of the observed percentage inhibition of normalized pSMAD2^+ from Cycle 1 Day 1 and Day 12 for Cohort 3 together with the estimated means from the model are provided in Table 2."}, "[3]": {"system": "T cell subsets (CD3+, CD8+, CD4+, CD4+CD25+CD127-/LOFoxp3+)", "assay": "Flow cytometry for T cell subsets", "assay_type": "in vivo, Human", "from_the_text": "Blood samples were obtained and prepared for flow cytometry assessment following the instructions of Quintiles Laboratories (Durham, NC). After red blood cell lysis, cells were stained for CD3^+, CD8^+, CD4^+ and CD4^+CD25^+ CD127^−/LOFoxp3^+ and events were collected by flow cytometer per standard Quintiles procedures. All results were reported as absolute cell counts and as percentage of lymphocytes.\n(§2) An amendment was introduced to assess T cell subsets in Part B and Part C."}, "[4]": {"assay": "Safety and blood counts in first-in-human dose study", "assay_type": "in vivo", "from_the_text": "as §2"}, "ID1 and CD44": {"system": "ID1 and CD44", "set-up": "method as in PMID 21156287", "conditions": "1 patient, surgical re-resection during off-period of intermittent dosing; cited from earlier work"}, "[5]": {"conditions": "Part B, in combination with lomustine"}, "[6]": {"conditions": "Part B, in combination with lomustine, n=26"}, "[7]": {"conditions": "Primary glioma (n=13), IDH1/2 mutation"}, "[8]": {"conditions": "Primary glioma (n=13), Other mutation"}, "[9]": {"conditions": "Secondary or low grade glioma (n=8), IDH1/2 mutation"}, "[10]": {"conditions": "Secondary or low grade glioma (n=8), Other mutation"}, "[11]": {"conditions": "patients with advanced cancer, first-in-human dose study"}}, "note": "Several values for one entry are separate records, joined by “and”; a condition that tells them apart may be missing. Equal values may be shown once. Read-outs that look alike come from different tables or passages of the source. Marks after values point to notes of the source that are not given here.", "data": [{"smiles": "Cc1cccc(-c2nn3c(c2-c2ccnc4ccc(C(N)=O)cc24)CCC3)n1", "note": "[galunisertib]", "values": [{"measurement": "mean population CL", "setting": "[1]", "result": 38, "unit": "L/h"}, {"measurement": "steady state volume of distribution (Vss)", "setting": "[1]", "result": 210, "unit": "L"}, {"measurement": "patients with primary glioblastoma showing radiographic responses or SD ≥6 cycles", "setting": "glioma; 3/13 patients, no IDH1 or IDH2 mutation", "result": 23, "unit": "%"}, {"measurement": "patients with tumors not containing the EGFR variant treated for ≥6 cycles", "setting": "glioma; 7/13 patients", "result": 54, "unit": "%"}, {"measurement": "patients with tumors containing EGFR variants treated for <6 cycles", "setting": "glioma; 8/8 patients (2 in Part A and 6 in Part B)", "result": 100, "unit": "%"}, {"measurement": "patients with clinical benefit (CR, PR or SD ≥6 cycles)", "setting": "glioma; 12 of 79 patients, all parts, all in glioma", "result": 15, "unit": "%"}, {"measurement": "cycles treated, patients still receiving galunisertib as of June 2014", "setting": "glioma; Part A, 2 individual patients", "result": "73 cycles and 55 cycles"}, {"measurement": "Cycles on study treatment, median (range)", "setting": "glioma; Part A, monotherapy, N=39", "result": "2 (1–46)"}, {"measurement": "Cycles (n) (best response)", "setting": "glioma; Part A, monotherapy", "result": "3 and 2 and 1 and 29 (CR) and 13 (PR) and 22 (PR) and 46 (CR) and 40 (SD)"}, {"measurement": "CR/PR", "setting": "glioma; Part A, monotherapy, n=30", "result": "5 (16.7) n (%)"}, {"measurement": "CR/PR/SD ≥6 cycles", "setting": "glioma; Part A, monotherapy, n=30", "result": "6 n (%) and 6 (20.0) n (%)"}, {"measurement": "On study treatment at study closure in 2012", "setting": "glioma; Part A, monotherapy, n=30", "result": "2 (6.7) n (%)"}, {"measurement": "CR/PR/SD ≥6 cycles, Low grade/secondary glioma", "setting": "glioma; Part A, monotherapy", "result": 3}, {"measurement": "CR/PR/SD ≥6 cycles, Primary glioma", "setting": "glioma; Part A, monotherapy", "result": 3}, {"measurement": "cycles treated, patient still receiving galunisertib as of June 2014", "setting": "glioma; Part B, 1 patient", "result": 48, "unit": "cycles"}, {"measurement": "Cycles on study treatment, median (range)", "setting": "glioma; Part B, in combination with lomustine, N=26", "result": "2 (1–22)"}, {"measurement": "Cycles (n) (best response)", "setting": "glioma; [5]", "result": "10 (PR) and 12 (SD) and 2 and 4 and 1"}, {"measurement": "CR/PR", "setting": "glioma; [6]", "result": "2 (7.7) n (%)"}, {"measurement": "CR/PR/SD ≥6 cycles", "setting": "glioma; [6]", "result": "6 ^* n (%) and 6 (23.1) ^* n (%)"}, {"measurement": "On study treatment at study closure in 2012", "setting": "glioma; [6]", "result": "1 (3.8) n (%)"}, {"measurement": "CR/PR/SD ≥6 cycles, Low grade/secondary glioma", "setting": "glioma; [5]", "result": 4}, {"measurement": "CR/PR/SD ≥6 cycles, Primary glioma", "setting": "glioma; [5]", "result": 2}, {"measurement": "Clinical Benefit", "setting": "glioma; [7]", "result": "0/13"}, {"measurement": "No Clinical Benefit", "setting": "glioma; [7]", "result": "0/13"}, {"measurement": "Clinical Benefit", "setting": "glioma; [8]", "result": "3/13"}, {"measurement": "No Clinical Benefit", "setting": "glioma; [8]", "result": "10/13"}, {"measurement": "Clinical Benefit", "setting": "glioma; [9]", "result": "4/8"}, {"measurement": "No Clinical Benefit", "setting": "glioma; [9]", "result": "1/8"}, {"measurement": "Clinical Benefit", "setting": "glioma; [10]", "result": "0/8"}, {"measurement": "No Clinical Benefit", "setting": "glioma; [10]", "result": "3/8"}, {"measurement": "patients with clinical benefit (CR/PR and SD ≥6 cycles) among patients with IDH1/2 mutation", "setting": "glioma; of the 5 patients with IDH1/2 mutation", "result": 4, "unit": "patients"}, {"measurement": "patients with a reduction in pSMAD2 in PBMCs", "setting": "[2]; Cohort 3 (160 mg/day), 9 of 14 patients, first 14 days of treatment", "result": 64, "unit": "%"}, {"measurement": "mean percentage inhibition of pSMAD2", "setting": "[2]; Cohort 3, end of 14 days of treatment, PBMCs", "result": "approximately 40%"}, {"measurement": "patients with pSMAD2 levels reduced in relationship to drug concentration", "setting": "[2]; Cohort 3, of 11 patients assessed about 2–6 h after administration on Day 14 of first cycle", "result": 6, "unit": "patients"}, {"measurement": "inhibition at 160 mg", "setting": "[2]; Day 1, 0.5 h, PBMCs, mixed-effects model, read-out: Fitted Percentage Inhibition of Normalized pSMAD2", "result": 27, "unit": "%"}, {"measurement": "inhibition at 160 mg", "setting": "[2]; Day 1, 0.5 h, PBMCs, read-out: Observed Percentage Inhibition of Normalized pSMAD2", "result": 26, "unit": "%"}, {"measurement": "inhibition at 160 mg", "setting": "[2]; Day 1, 4 h, PBMCs, mixed-effects model, read-out: Fitted Percentage Inhibition of Normalized pSMAD2", "result": 5, "unit": "%"}, {"measurement": "inhibition at 160 mg", "setting": "[2]; Day 1, 4 h, PBMCs, read-out: Observed Percentage Inhibition of Normalized pSMAD2", "result": 5, "unit": "%"}, {"measurement": "inhibition at 160 mg", "setting": "[2]; Day 1, 6 h, PBMCs, mixed-effects model, read-out: Fitted Percentage Inhibition of Normalized pSMAD2", "result": -10, "unit": "%"}, {"measurement": "inhibition at 160 mg", "setting": "[2]; Day 1, 6 h, PBMCs, read-out: Observed Percentage Inhibition of Normalized pSMAD2", "result": -10, "unit": "%"}, {"measurement": "inhibition at 160 mg", "setting": "[2]; Day 12 or 15 post dose (2, 3, 4, 6 h), PBMCs, mixed-effects model, read-out: Fitted Percentage Inhibition of Normalized pSMAD2", "result": 34, "unit": "%"}, {"measurement": "inhibition at 160 mg", "setting": "[2]; Day 12 or 15 post dose (2, 3, 4, 6 h), PBMCs, read-out: Observed Percentage Inhibition of Normalized pSMAD2", "result": 39, "unit": "%"}, {"measurement": "pSMAD2 inhibition after drug was stopped", "setting": "[2]; next 3 days after 14 days of administration, 2 patients, drug levels low or undetectable", "result": "still present"}, {"measurement": "lymphocyte counts and the respective subsets", "setting": "[3]; [5]", "result": "reduced"}, {"measurement": "counts of CD3+, CD8+, CD4+ and CD4+CD25+CD127−/LOFoxp3+ cells", "setting": "[3]; Part C, monotherapy", "result": "either stabilized or increased"}, {"measurement": "lymphocyte counts", "setting": "[4]; Part B, combination of galunisertib and lomustine, some patients", "result": "reduction in lymphocyte counts"}, {"measurement": "bone marrow toxicity (neutrophils, platelets, lymphocyte counts)", "setting": "[4]; Part C, monotherapy 300 mg/day, patients receiving more than 2 cycles", "result": "no comparable bone marrow toxicity"}, {"measurement": "cardiac adverse events", "setting": "[4]; [11]", "result": "no cardiac adverse events"}, {"measurement": "toxicity / safety profile", "setting": "[4]; [11]", "result": "favorable safety profile"}, {"measurement": "toxicity / safety profile", "setting": "[4]; patients with advanced cancer, first-in-human dose study, listed as Galunisertib", "result": "favorable toxicity profile"}, {"measurement": "expression of ID1 and CD44 in tumor tissue after treatment", "setting": "ID1 and CD44", "result": "reduced"}]}]}
